Results on four compounds are retold here after paper PMC10241580, “Bioassay-Guided Isolation of Antiplasmodial Compounds from Hypericum lanceolatum Lam. (Hypericaceae) and Their Cytotoxicity and Molecular Docking” (BioMed Research International, 2023).

Usually IC50 stands for the point on the concentration scale where inhibition reaches its midpoint.

A short description of data set [1]: In vitro cytotoxicity MTT assay on P388 cell line. The format is cell-based. As to conditions: mouse, mean ± SD (n = 3). As for the experimental part:
The in vitro study of the cytotoxicity potency of the isolated compounds was performed using the P388 (mouse leukaemia) cell line which was obtained from the American Type Culture Collection (ATCC) (Rockville, MD, USA). The cells were arranged in 96-well plates at a density of 10^4 cells per well containing […] of culture medium and then cultured for 24 h in the opti-MEM medium supplemented with 2 mM glutamine (Gibco, Grand Island, NY, USA), streptomycin (50 μg/mL), penicillin (50 U/mL), and 5% fetal calf serum (Gibco). After the cell cultures were maintained at 37°C in an atmosphere saturated with 5% CO2, the four tested compounds prepared at the concentration of 1 mg/mL by dissolving in the mixture DMSO/culture medium (1 : 9) were diluted in cell culture to reach the required concentrations (ranging from 1 to 100 μg/mL). The in vitro cytotoxic activity of the tested compounds was evaluated using the MTT assay for leukaemia cells.

Another data set concerns Plasmodium parasite. Details: method as in doi:10.1016/j.sajb.2022.11.021. As to conditions: in words; cited from earlier work.

Converted amounts (≈) assume the structure as drawn.

The compound `O=c1c2ccc(O)cc2oc2cccc(O)c12` [Compound 1, 1,6-dihydroxyxanthone] showed an IC50 in data set [1] (P388 cells) of 17.6 ± 0.7 µg/mL (≈ 77.1 µM). In data set [1] (P388 leukaemia cells), `O=c1c2cc(O)c(O)cc2oc2cc(O)cc(O)c12` [Compound 2, norathyriol] displayed an IC50 of 21.8 ± 0.3 µg/mL (≈ 83.8 µM). `C=C(C)[C@@H]1CC[C@]2(C(=O)O)CC[C@]3(C)[C@H](CC[C@@H]4[C@@]5(C)CC[C@H](O)C(C)(C)[C@@H]5CC[C@]43C)[C@@H]12` [Compound 3, betulinic acid] came in with an IC50 in data set [1] (P388 cells) of 6.8 ± 2.2 µg/mL (≈ 14.9 µM). As for `C[C@H]1[C@H](C)CC[C@]2(C(=O)O)CC[C@]3(C)C(=CC[C@@H]4[C@@]5(C)CC[C@H](O)C(C)(C)[C@@H]5CC[C@]43C)[C@H]12` [Compound 4, ursolic acid], the Antiplasmodial potency entry in the data set on Plasmodium parasite is on record as “weak”. This compound also registered a 50% inhibitory concentration (IC50) in data set [1] (P388 leukaemia cells) of 2.5 ± 0.6 µg/mL (≈ 5.47 µM).
